The subject of data set [1] is PMA-induced increase in mouse ear thickness and weight. Briefly: Topical PMA-induced acute atopic dermatitis in ICR mice. The class given is in vivo. As to conditions: ICR female mice, 0.3 mg/ear/bid topical; for thickness (right ear) / Weight (right ear): 30 minutes before and 15 minutes after PMA, Mean±Sem; for thickness (right ear) / thickness Inhibition ratio: 6 hours after PMA. The protocol: ICR female mice (20-30 g), five mice or nine mice/group, were used in this study. Five micrograms of PMA (phorbol 12-myristate 13-acetate) in 20 μL of ethanol was applied topically to the anterior and posterior surface of the right ear of each mouse. Twenty microliters of vehicle (ethanol/acetone ([…])=1/1); 0.3 mg of EX. 68 ([…]); EX. 76, EX. 50, EX. 92 or EX. 65 (0.3 mg […]) were administrated to the same areas 30 minutes before and 15 minutes after PMA application. The thickness of right ears of each mouse was measured 6 hours after PMA stimulation. Ear weight of right ears of each mouse was weighed with analytical balance Each value represents the Mean±Sem. Statistical significance compared with model groups (*P<0.05; **P<0.01). Tables 5-1, 5-2 and 5-3 listed the inhibitory effect on PMA-induced increase in mouse ear thickness and weight. The compounds of the present invention have a good inhibitory effect on PMA-induced increase in mouse ear thickness and weight.

The nature of data set [2]: Compound stability in rat liver microsomes. It is filed as in vitro ADME. As to conditions: for CLint scaled at 5 μM: liver microsomes, pH 7.4, in vivo CLint extrapolated from rat liver microsome incubation; for half-life at 5 μM: rat liver microsomes 0.5 mg protein/mL, compound 5 μM, NADPH 1.0 mM, pH 7.4, 37° C., read-out: Rat T1/2. In a few lines:
(§1)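 Compounds (5 μM) incubated at 37 °C with human or rat liver microsomes (0.5 mg protein/mL) and 1.0 mM NADPH in 100 mM phosphate buffer pH 7.4, 0.05% DMSO, in duplicate. Sampled 0–60 min, quantified by LC/MS/MS as % of time zero; CLint extrapolated.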

The nature of data set [3]: Compound stability in human liver microsomes. The class given is in vitro ADME. As to conditions: for half-life at 5 μM: human liver microsomes 0.5 mg protein/mL, compound 5 μM, NADPH 1.0 mM, pH 7.4, 37° C., read-out: Human T1/2; for CLint scaled at 5 μM: liver microsomes, pH 7.4, in vivo CLint extrapolated from human liver microsome incubation. An outline of the steps:
as §1

The nature of data set [4]: Pharmacokinetics after intravenous and oral administration in rats. The class given is in vivo. In a few lines:
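Rats dosed i.v. (about 0.5, 0.6, 1 or 2 mg/kg) or p.o. (5 or 10 mg/kg) as solution, suspension or capsule. Plasma sampled over 24 h and quantified by LC/MS/MS in MRM mode with ESI.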

The target of another data set is T1, Aurora-B (h) (Homo sapiens, UniProt Q96GD4).
T1 construct: purchased Millipore UK Ltd (assays performed there as a service)
T1 sequence (Q96GD4 whole entry): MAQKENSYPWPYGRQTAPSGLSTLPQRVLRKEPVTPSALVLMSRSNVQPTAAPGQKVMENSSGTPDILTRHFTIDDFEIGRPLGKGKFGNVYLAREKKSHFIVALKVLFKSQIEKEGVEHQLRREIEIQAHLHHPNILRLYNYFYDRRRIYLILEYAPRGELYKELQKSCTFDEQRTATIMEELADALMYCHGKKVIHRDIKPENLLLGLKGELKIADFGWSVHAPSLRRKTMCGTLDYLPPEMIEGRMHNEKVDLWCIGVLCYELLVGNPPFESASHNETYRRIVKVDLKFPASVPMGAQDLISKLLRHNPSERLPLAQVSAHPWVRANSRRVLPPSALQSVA
Briefly: Aurora-B (h) kinase assay. The class given is biochemical. The note with it: [γ-33P-ATP] 10 μM or KM values; 40 minutes at room temperature. How it is done: (§2) The above assay procedure can be used to determine the IC50 for inhibition and/or the inhibition constant, Ki. […] The IC50 value is estimated by preparing a 10 point curve using a ½ log dilution series (for example, a typical curve may be prepared using the following compound concentrations: 3 μM, 1 μM, 0.3 μM, 0.1 μM, 0.03 μM, 0.01 μM, 0.003 μM, 0.001 μM, 0.0003 μM and 0 μM).
Aurora-B (h) is incubated with 8 mM MOPS pH 7.0, 0.2 mM EDTA, 30 μM […], 10 mM MgAcetate and [γ-^33PATP] […] The reaction is initiated by the addition of the MgATP mix. After incubation for 40 minutes at room temperature, the reaction is stopped by the addition of a 3% phosphoric acid solution. 10 μL of the reaction is then spotted onto a P30 filtermat and washed three times for 5 minutes in 75 mM phosphoric acid and once in methanol prior to drying and scintillation counting.
(§3) The kinase assays described herein were performed at Millipore UK Ltd, Dundee Technology Park, Dundee DD2 1SW, UK.

Another data set addresses T2, JAK1 (h) (Homo sapiens, UniProt P23458).
T2 construct: purchased Millipore UK Ltd (assays performed there as a service)
The data set is described as follows: JAK1 (h) kinase assay. It is filed as biochemical. As to conditions: [γ-33P-ATP] 10 μM or KM values; 40 minutes at room temperature. How it is done: as §2
JAK1 (h) is incubated with 20 mM Tris/HCl pH 7.5, 0.2 mM EDTA, 500 μM […], 10 mM MgAcetate and [γ-^33P-ATP] […] The reaction is initiated by the addition of the MgATP mix. After incubation for 40 minutes at room temperature, the reaction is stopped by the addition of 3% phosphoric acid solution. 10 μL of the reaction is then spotted onto a P30 filtermat and washed three times for 5 minutes in 75 mM phosphoric acid and once in methanol prior to drying and scintillation counting.
as §3

Another data set concerns the target T3, JAK2 (h) (Homo sapiens, UniProt O60674).
T3 construct: purchased Millipore UK Ltd (assays performed there as a service)
The data set is described as follows: JAK2 (h) kinase assay. The class given is biochemical. The note with it: [γ-33P-ATP] 10 μM or KM values; 40 minutes at room temperature. The protocol:
Kinase assays can be performed by measurement of incorporation of γ-^33P ATP into immobilized myelin basic protein (MBP). High binding white 384 well plates (Greiner) are coated with MBP (Sigma # M-1891) by incubation of 60 μL well of 20 μg/mL MBP in Tris-buffered saline (TBS; 50 mM Tris pH 8.0, 138 mM NaCl, 2.7 mM KCl) for 24 h at 4° C. Plates are washed 3× with 100 μL TBS. Kinase reactions are carried out in a total volume of 34 μL in kinase buffer (according to the need to make, for example, 5 mM Hepes pH 7.6, 15 mM NaCl, 0.01% bovine gamma globulin (Sigma #1-5506), 10 mM MgCl2, 1 mM DTT, 0.02% TritonX-100). Compound dilutions are performed in DMSO and added to assay wells to a final DMSO concentration of 1%. Each data point is measured in duplicate, and at least two duplicate assays are performed for each individual compound determination. Enzyme is added to final concentrations of 10 nM or 20 nM, for example. A mixture of unlabeled ATP and γ-^33P ATP is added to start the reaction (2×10^6 cpm of γ-^33P ATP per well (3000 Ci/mmole) and 10 μM unlabeled ATP, typically. The reactions are carried out for 1 hour at room temperature with shaking. Plates are washed 7× with TBS, followed by the addition of 50 μL well scintillation fluid (Wallac). Plates are read using a Wallac Trilux counter. This is only one format of such assays; various other formats are possible, as known to one skilled in the art.
as §2
JAK2 (h) is incubated with 8 mM MOPS pH 7.0, 0.2 mM EDTA, 100 μM […], 10 mM MgAcetate and [γ-^33P-ATP] […] The reaction is initiated by the addition of the MgATP mix. After incubation for 40 minutes at room temperature, the reaction is stopped by the addition of 3% phosphoric acid solution. 10 μL of the reaction is then spotted onto a P30 filtermat and washed three times for 5 minutes in 75 mM phosphoric acid and once in methanol prior to drying and scintillation counting.
as §3

The mark [5] stands for this setting: rat, plasma, iv dosing, dose 1 mg/kg (Ex. 9: 0.6, Ex. 18: 0.5, Ex. 50: 0.96 mg/kg).

pIC50: −log10 of the molar value. Marks after values point to notes of the source that are not given here.

T2 sequence (P23458 whole entry): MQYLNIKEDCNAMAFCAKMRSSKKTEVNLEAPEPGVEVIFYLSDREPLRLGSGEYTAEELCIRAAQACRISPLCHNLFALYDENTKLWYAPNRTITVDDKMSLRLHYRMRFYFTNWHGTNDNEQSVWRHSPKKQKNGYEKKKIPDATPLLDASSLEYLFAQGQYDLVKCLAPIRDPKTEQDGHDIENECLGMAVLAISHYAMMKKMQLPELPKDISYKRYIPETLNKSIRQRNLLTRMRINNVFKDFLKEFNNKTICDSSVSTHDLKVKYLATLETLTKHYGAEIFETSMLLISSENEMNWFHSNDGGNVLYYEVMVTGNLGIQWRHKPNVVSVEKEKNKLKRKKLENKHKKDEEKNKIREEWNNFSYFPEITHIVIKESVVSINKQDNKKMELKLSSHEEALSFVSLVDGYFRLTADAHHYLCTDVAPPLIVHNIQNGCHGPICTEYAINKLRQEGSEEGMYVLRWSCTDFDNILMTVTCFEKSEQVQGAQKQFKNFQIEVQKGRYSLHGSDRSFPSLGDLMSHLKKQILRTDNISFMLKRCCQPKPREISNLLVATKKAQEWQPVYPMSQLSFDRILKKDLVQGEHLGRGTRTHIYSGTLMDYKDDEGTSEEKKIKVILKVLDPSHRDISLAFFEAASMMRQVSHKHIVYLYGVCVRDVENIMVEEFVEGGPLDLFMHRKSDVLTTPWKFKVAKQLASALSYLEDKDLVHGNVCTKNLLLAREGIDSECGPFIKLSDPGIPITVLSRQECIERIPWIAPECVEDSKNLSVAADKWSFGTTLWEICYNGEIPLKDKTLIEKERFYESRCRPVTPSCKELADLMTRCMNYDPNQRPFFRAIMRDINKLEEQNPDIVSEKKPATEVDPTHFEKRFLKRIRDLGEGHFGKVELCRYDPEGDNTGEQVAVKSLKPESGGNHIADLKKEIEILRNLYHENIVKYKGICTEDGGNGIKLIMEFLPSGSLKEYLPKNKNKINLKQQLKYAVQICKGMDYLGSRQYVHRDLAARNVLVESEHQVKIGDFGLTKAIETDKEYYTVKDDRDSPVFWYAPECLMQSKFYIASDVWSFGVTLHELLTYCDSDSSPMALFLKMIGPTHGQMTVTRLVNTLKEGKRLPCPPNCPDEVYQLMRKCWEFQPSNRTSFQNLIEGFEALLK
T3 sequence (O60674 whole entry): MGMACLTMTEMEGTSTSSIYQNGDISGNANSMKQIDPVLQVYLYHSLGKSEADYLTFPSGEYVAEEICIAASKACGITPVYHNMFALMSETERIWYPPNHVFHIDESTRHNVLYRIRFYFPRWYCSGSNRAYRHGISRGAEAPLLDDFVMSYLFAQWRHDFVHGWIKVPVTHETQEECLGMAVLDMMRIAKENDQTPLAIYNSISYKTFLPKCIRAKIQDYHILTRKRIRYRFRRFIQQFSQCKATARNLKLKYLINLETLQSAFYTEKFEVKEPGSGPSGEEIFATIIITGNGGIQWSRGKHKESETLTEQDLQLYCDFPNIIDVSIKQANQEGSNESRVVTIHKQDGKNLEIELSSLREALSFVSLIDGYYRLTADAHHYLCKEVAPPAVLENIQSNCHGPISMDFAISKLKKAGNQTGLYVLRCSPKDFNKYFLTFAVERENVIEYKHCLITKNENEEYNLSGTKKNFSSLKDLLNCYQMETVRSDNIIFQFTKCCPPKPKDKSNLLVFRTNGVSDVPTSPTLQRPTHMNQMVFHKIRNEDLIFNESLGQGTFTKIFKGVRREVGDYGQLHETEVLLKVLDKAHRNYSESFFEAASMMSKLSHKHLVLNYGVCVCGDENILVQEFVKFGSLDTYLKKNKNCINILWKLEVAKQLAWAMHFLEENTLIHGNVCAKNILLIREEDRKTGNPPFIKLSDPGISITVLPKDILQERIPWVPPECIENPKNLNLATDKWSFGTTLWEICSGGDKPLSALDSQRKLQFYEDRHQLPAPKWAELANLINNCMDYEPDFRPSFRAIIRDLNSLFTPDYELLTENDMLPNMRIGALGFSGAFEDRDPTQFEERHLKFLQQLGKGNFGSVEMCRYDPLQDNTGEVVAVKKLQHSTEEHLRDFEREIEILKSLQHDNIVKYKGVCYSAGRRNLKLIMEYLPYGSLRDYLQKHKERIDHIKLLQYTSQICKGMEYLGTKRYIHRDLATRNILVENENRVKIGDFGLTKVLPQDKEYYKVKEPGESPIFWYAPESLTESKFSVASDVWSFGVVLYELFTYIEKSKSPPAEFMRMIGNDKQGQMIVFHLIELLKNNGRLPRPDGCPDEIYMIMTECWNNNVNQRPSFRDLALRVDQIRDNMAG

For the compound `Cn1cnc2cc(Nc3ncc(Cl)c(NC4CCN(c5ccc(C#N)nn5)CC4)n3)ccc21` [Example 50, 6-(4-((5-chloro-2-((1-methyl-1H-benzo[d]imidazol-5-yl)amino)pyrimidin-4-yl)amino)piperidin-1-yl)pyridazine-3-carbonitrile], in data set [1], the “Weight Inhibition ratio” value was determined as 39.95%, the “thickness (right ear)” value is recorded as 0.321 ± 0.022** mm, the “Weight (right ear)” value is 25.222 ± 1.998** mg and the “thickness Inhibition ratio” value stood at 46.89%. In data set [2], the intrinsic clearance (CLint scaled) at 5 μM was 58.2 mL/min/kg and the half-life at 5 μM amounted to 29.9 min. In data set [3], the half-life at 5 μM was found to be 55.6 min and the CLint scaled at 5 μM is 31.3 mL/min/kg. Moreover, in data set [4] (iv dosing, dose 1 mg/kg (Ex. 9: 0.6, Ex. 18: 0.5, Ex. 50: 0.96 mg/kg)), the “Clearance (CL) after iv dosing” value is 14.2 mL/min/kg. In data set [4] (setting [5]), this compound had an AUC(0-t) of 1210 ng·h/mL and a half-life of 63 min. Further, the Vd in data set [4] (rat, plasma, iv dosing, dose 1 mg/kg (Ex. 9: 0.6, Ex. 18: 0.5, Ex. 50: 0.96 mg/kg), read-out: Vss) is 1.17 L/kg. Moreover, in data set [4] (rat, plasma, oral (generally 5 or 10 mg/kg) versus iv dosing, read-out: F (oral bioavailability)), the bioavailability came to 51.8%.

With `CC(C)(O)Cn1nnc2cc(Nc3ncc(Cl)c(NC4CCN(c5ccc(C#N)nn5)CC4)n3)ccc21` [Example 62, 6-(4-((5-chloro-2-((1-(2-hydroxy-2-methylpropyl)-1H-benzo[d][1,2,3]triazol-5-yl)amino)pyrimidin-4-yl)amino)piperidin-1-yl)pyridazine-3-carbonitrile], the pIC50 is 7.32 at Aurora-B (h), 9.40 against JAK1 (h) and 8.70 at JAK2 (h). In addition, the intrinsic clearance (CLint scaled) at 5 μM was 75.3 mL/min/kg in data set [2] and 9.1 mL/min/kg in data set [3]. Further, the values for the half-life at 5 μM in data set [2] and in data set [3] were 33 min and 192 min, respectively.

`CCCn1nnc2cc(Nc3ncc(Cl)c(NC4CCN(c5ccc(C#N)nn5)CC4)n3)ccc21` [Example 65, 6-(4-((5-chloro-2-((1-propyl-1H-benzo[d][1,2,3]triazol-5-yl)amino)pyrimidin-4-yl)amino)piperidin-1-yl)pyridazine-3-carbonitrile] had a pIC50 on JAK1 (h) of 9.05. Moreover, in data set [1], the “Weight Inhibition ratio” value is recorded as 46.22%, the “thickness (right ear)” value is given as 0.374 ± 0.022** mm, the “Weight (right ear)” value is reported as 26.333 ± 1.958* mg and the “thickness Inhibition ratio” value worked out at 38.95%. Further, in data set [2], the CLint scaled at 5 μM is 473 mL/min/kg and the half-life at 5 μM amounted to 5.3 min. In data set [3], the half-life at 5 μM was 8 min and the intrinsic metabolic clearance (CLint scaled) at 5 μM is 218 mL/min/kg.

For the compound `CC(C)(O)Cc1cn2ccc(Nc3ncc(Cl)c(NC4CCN(c5ccc(C#N)cn5)CC4)n3)cc2n1` [Example 76, 6-(4-((5-chloro-2-((2-(2-hydroxy-2-methylpropyl)imidazo[1,2-a]pyridin-7-yl)amino)pyrimidin-4-yl)amino)piperidin-1-yl)nicotinonitrile], on JAK1 (h), the pIC50 was 9.30. In data set [1], the “Weight Inhibition ratio” value is reported as 68.40%, the “thickness (right ear)” value is given as 0.252 ± 0.018** mm, the “Weight (right ear)” value is reported as 20.000 ± 1.323** mg and the “thickness Inhibition ratio” value worked out at 77.86%. Besides, in data set [2], the intrinsic metabolic clearance (CLint scaled) at 5 μM was 1440 mL/min/kg and the half-life at 5 μM was 1.7 min. In data set [3], the half-life at 5 μM was 15.1 min and the intrinsic clearance (CLint scaled) at 5 μM is 115 mL/min/kg.

Turning to `CN(C)C(=O)c1nc2cc(Nc3ncc(Cl)c(NC4CCN(c5ccc(C#N)nn5)CC4)n3)ccn2n1` [Example 85, 7-((5-chloro-4-((1-(6-cyanopyridazin-3-yl)piperidin-4-yl)amino)pyrimidin-2-yl)amino)-N,N-dimethyl-[1,2,4]triazolo[1,5-a]pyridine-2-carboxamide], the pIC50 against Aurora-B (h) was 6.79; against JAK1 (h) it was 9.52; against JAK2 (h) it was 7.77. The CLint scaled at 5 μM in data set [2] was 106 mL/min/kg; in data set [3], 53.5 mL/min/kg. Also, the half-life at 5 μM in data set [2] was 23.5 min; in data set [3], 32.5 min.

For the compound `N#Cc1ccc(N2CCC(Nc3nc(Nc4cnc5c(c4)ncn5CCO)ncc3Cl)CC2)nc1` [Example 92, 6-(4-((5-chloro-2-((3-(2-hydroxyethyl)-3H-imidazo[4,5-b]pyridin-6-yl)amino)pyrimidin-4-yl)amino)piperidin-1-yl)nicotinonitrile], in data set [1], the “Weight Inhibition ratio” value is recorded as 72.30%, the “thickness (right ear)” value is given as 0.319 ± 0.027** mm, the “Weight (right ear)” value is 21.444 ± 1.952** mg and the “thickness Inhibition ratio” value is 60.03%.

These data come from US10683297B2 (Sunshine Lake Pharma Co., Ltd., priority 2017, dated 2020).
